From US20230084927A1, “GLUCOSE UPTAKE INHIBITORS AND USES THEREOF” (METABOMED LTD., priority 2019, published 2023)
Where two headings read alike, the source gives them in different places.

Key:
SDH-WT cells = assay: Cellular / differential toxicity assay (CellTiter-Glo, 3 days); format: cell-based, murine; conditions: toxicity, SDH-WT cells, 3 days, CellTiter-Glo, read-out: EC50 (uM) SDH-WT
In short: (§1)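 Isogenic SDHB-deficient (HRAS-transformed SDH-KO) and SDH-WT cells grown in DMEM-F12 with 1 mM glutamine and 3% FBS, plated with compound (10-point dilution from 10 uM to 0.0065 uM or lower) for 3 days at 37 °C, 5% CO2. Viability by CellTiter-Glo luminescence; EC50 calculated.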

[1] = test system: SDH-KO-HRAS cells (SDHB-deficient); assay: as above; format: cell-based, murine; conditions: toxicity, SDH-KO cells, 3 days, CellTiter-Glo, read-out: EC50 (uM) SDH-KO-HTAS-C17
In short: as §1

Row | SMILES | EC50 (SDH-WT cells; Mus musculus, 72 h) | EC50 ([1]; Mus musculus, 72 h) | EC50 (SDH-WT cells) | EC50 [1]
1 | Cc1nc(NCc2ccc(OC(C)C)cc2)c2sc3nc4c(cc3c2n1)COC(C)(C)C4 [Compound 235] | > 10 µM | > 10 µM |  | 
2 | CC1CCC(C)N(c2ncnc3c2sc2nc4c(cc23)COC(C)(C)C4)C1 (centres unmarked) [Compound 236] | > 10 µM | > 10 µM |  | 
3 | Cc1nc(N)c2sc3nc4c(cc3c2n1)COC(C)(C)C4 [Compound 237] | > 10 µM | 3 to 10 µM |  | 
4 | CC1(C)Cc2nc3sc4c(NCCCO)ncnc4c3cc2CO1 [Compound 238] | > 10 µM | > 10 µM |  | 
5 | CC(C)CCNc1ncnc2c1sc1nc3c(cc12)COC(C)(C)C3 [Compound 239] | > 10 µM | > 10 µM |  | 
6 | Cc1nc(NCCc2ccccc2)c2sc3nc4c(cc3c2n1)COC(C)(C)C4 [Compound 240] | > 10 µM | 3 to 10 µM |  | 
7 | CCCCCCCNc1nc(C)nc2c1sc1nc3c(cc12)COC(C)(C)C3 [Compound 241] | > 10 µM | > 10 µM |  | 
8 | CCCCN(C)c1nc(C)nc2c1sc1nc3c(cc12)COC(C)(C)C3 [Compound 242] | > 10 µM | > 10 µM |  | 
9 | CCCCCNc1ncnc2c1sc1nc3c(cc12)COC(C)(C)C3 [Compound 243] | 3 to 10 µM | 3 to 10 µM |  | 
10 | Cc1nc(NN)c2sc3nc4c(cc3c2n1)COC(C)(C)C4 [Compound 244] | > 10 µM | > 10 µM |  | 
11 | CC1CCN(c2ncnc3c2sc2nc4c(cc23)COC(C)(C)C4)CC1 [Compound 245] | > 10 µM | > 10 µM |  | 
12 | CCCCCCCCNc1ncnc2c1sc1nc3c(cc12)COC(C)(C)C3 [Compound 246] | > 10 µM | > 10 µM |  | 
13 | CC1(C)Cc2nc3sc4c(NCC5CCCO5)ncnc4c3cc2CO1 (centres unmarked) [Compound 247] | > 10 µM | 3 to 10 µM |  | 
14 | CCCN(CCC)c1nc(C)nc2c1sc1nc3c(cc12)COC(C)(C)C3 [Compound 248] | > 10 µM | > 10 µM |  | 
15 | CCCCCCCCCNc1ncnc2c1sc1nc3c(cc12)COC(C)(C)C3 [Compound 249] | > 10 µM | > 10 µM |  | 
16 | Cc1nc(NCCO)c2sc3nc4c(cc3c2n1)COC(C)(C)C4 [Compound 250] | > 10 µM | > 10 µM |  | 
17 | Cc1nc(NCCC(C)C)c2sc3nc4c(cc3c2n1)COC(C)(C)C4 [Compound 251] | > 10 µM | > 10 µM |  | 
18 | Cc1nc(NC(C)CCc2ccccc2)c2sc3nc4c(cc3c2n1)COC(C)(C)C4 (centres unmarked) [Compound 252] |  | > 10 µM | > 10 µM | 
19 | CCN(CC)c1nc(C)nc2c1sc1nc3c(cc12)COC(C)(C)C3 [Compound 253] | > 10 µM | > 10 µM |  | 
20 | Cc1nc(NCc2ccccc2)c2sc3nc4c(cc3c2n1)COC(C)(C)C4 [Compound 254] | > 10 µM | > 10 µM |  | 

Row | SMILES | EC50 (SDH-WT cells; Mus musculus, 72 h) | EC50 ([1]; Mus musculus, 72 h) | EC50 (SDH-WT cells) | EC50 [1]
21 | CCCCCCCNc1ncnc2c1sc1nc3c(cc12)COC(C)(C)C3 [Compound 255] | > 10 µM | > 10 µM |  | 
22 | CCCCN(CC)c1ncnc2c1sc1nc3c(cc12)COC(C)(C)C3 [Compound 256] | 3 to 10 µM | 3 to 10 µM |  | 
23 | CC1(C)Cc2nc3sc4c(NCCO)ncnc4c3cc2CO1 [Compound 257] | > 10 µM | > 10 µM |  | 
24 | CCCCN(CCCC)c1ncnc2c1sc1nc3c(cc12)COC(C)(C)C3 [Compound 258] | > 10 µM | > 10 µM |  | 
25 | CC(C)(C)Nc1ncnc2c1sc1nc3c(cc12)COC(C)(C)C3 [Compound 259] | > 10 µM | > 10 µM |  | 
26 | CC1(C)Cc2nc3sc4c(NCCc5ccccc5)ncnc4c3cc2CO1 [Compound 260] | > 10 µM | > 10 µM |  | 
27 | CC1(C)Cc2nc3sc4c(NC5CCCCC5)ncnc4c3cc2CO1 [Compound 261] | > 10 µM | > 10 µM |  | 
28 | CCCCCNc1nc(C)nc2c1sc1nc3c(cc12)COC(C)(C)C3 [Compound 262] | > 10 µM | > 10 µM |  | 
29 | Cc1nc(N2CCC(C)CC2)c2sc3nc4c(cc3c2n1)COC(C)(C)C4 [Compound 263] | > 10 µM | > 10 µM |  | 
30 | Cc1nc(NC2CCCCC2)c2sc3nc4c(cc3c2n1)COC(C)(C)C4 [Compound 264] | > 10 µM | 3 to 10 µM |  | 
31 | Cc1nc(NC(C)CCc2ccccc2)c2sc3nc4c(cc3c2n1)COC(C)(C)C4 (centres unmarked) [Compound 265] |  |  | 3 to 10 µM | > 10 µM
32 | Cc1nc(NC(C)Cc2ccccc2)c2sc3nc4c(cc3c2n1)COC(C)(C)C4 (centres unmarked) [Compound 266] | 3 to 10 µM | > 10 µM |  | 
33 | CC1(C)Cc2nc3sc4c(NCCN5CCOCC5)ncnc4c3cc2CO1 [Compound 267] | > 10 µM | > 10 µM |  | 
34 | Cc1nc(N2CCCC2)c2sc3nc4c(cc3c2n1)COC(C)(C)C4 [Compound 268] | > 10 µM | > 10 µM |  | 
35 | CCCCN(CC)c1nc(C)nc2c1sc1nc3c(cc12)COC(C)(C)C3 [Compound 269] | > 10 µM | > 10 µM |  | 
36 | CC1(C)Cc2nc3sc4c(N(CCO)Cc5ccccc5)ncnc4c3cc2CO1 [Compound 271] | 3 to 10 µM | > 10 µM |  | 
37 | Cc1nc(NC(C)c2ccccc2)c2sc3nc4c(cc3c2n1)COC(C)(C)C4 (centres unmarked) [Compound 272] | > 10 µM | > 10 µM |  | 
38 | COc1ccc(CCNc2nc(C)nc3c2sc2nc4c(cc23)COC(C)(C)C4)cc1OC [Compound 273] | > 10 µM | 3 to 10 µM |  | 
39 | CC(Nc1ncnc2c1sc1nc3c(cc12)COC(C)(C)C3)c1ccccc1 (centres unmarked) [Compound 274] | > 10 µM | > 10 µM |  | 
40 | CC1(C)Cc2nc3sc4c(N(CCO)CCO)ncnc4c3cc2CO1 [Compound 275] | > 10 µM | > 10 µM |  | 

Row | SMILES | EC50 (SDH-WT cells; Mus musculus, 72 h) | EC50 ([1]; Mus musculus, 72 h) | EC50 (SDH-WT cells) | EC50 [1]
41 | CC(Cc1ccccc1)Nc1ncnc2c1sc1nc3c(cc12)COC(C)(C)C3 (centres unmarked) [Compound 276] | 3 to 10 µM | > 10 µM |  | 
42 | CC1(C)Cc2nc3sc4c(NCc5cccnc5)ncnc4c3cc2CO1 [Compound 277] | > 10 µM | > 10 µM |  | 
43 | CN(CCO)c1ncnc2c1sc1nc3c(cc12)COC(C)(C)C3 [Compound 278] | > 10 µM | > 10 µM |  | 
44 | CC1(C)Cc2nc3sc4c(N5CCC(Cc6ccccc6)CC5)ncnc4c3cc2CO1 [Compound 279] | > 10 µM | > 10 µM |  | 
45 | CCN1CCN(c2ncnc3c2sc2nc4c(cc23)COC(C)(C)C4)CC1 [Compound 280] | > 10 µM | > 10 µM |  | 
46 | COCCCNc1ncnc2c1sc1nc3c(cc12)COC(C)(C)C3 [Compound 281] | > 10 µM | 3 to 10 µM |  | 
47 | CC1CCCCN1c1ncnc2c1sc1nc3c(cc12)COC(C)(C)C3 (centres unmarked) [Compound 282] | > 10 µM | > 10 µM |  | 
48 | COCCNc1ncnc2c1sc1nc3c(cc12)COC(C)(C)C3 [Compound 283] | > 10 µM | > 10 µM |  | 
49 | CC1(C)Cc2nc3sc4c(NCCOCCO)ncnc4c3cc2CO1 [Compound 284] | > 10 µM | > 10 µM |  | 
50 | CC(O)CN(CC(C)O)c1ncnc2c1sc1nc3c(cc12)COC(C)(C)C3 (centres unmarked) [Compound 285] | > 10 µM | > 10 µM |  | 
51 | CC1(C)Cc2nc3sc4c(N5CCN(C(c6ccccc6)c6ccccc6)CC5)ncnc4c3cc2CO1 [Compound 286] | > 10 µM | > 10 µM |  | 
52 | CCN(CC)CCCNc1ncnc2c1sc1nc3c(cc12)COC(C)(C)C3 [Compound 287] | > 10 µM | > 10 µM |  | 
53 | CC1(C)Cc2nc3sc4c(N5CCN(CCO)CC5)ncnc4c3cc2CO1 [Compound 288] | > 10 µM | > 10 µM |  | 
54 | CCN(CCO)c1ncnc2c1sc1nc3c(cc12)COC(C)(C)C3 [Compound 289] | > 10 µM | 3 to 10 µM |  | 
55 | CC1(C)Cc2nc3sc4c(NCCCN5CCOCC5)ncnc4c3cc2CO1 [Compound 290] | > 10 µM | > 10 µM |  | 
56 | CCC(CO)Nc1ncnc2c1sc1nc3c(cc12)COC(C)(C)C3 (centres unmarked) [Compound 291] | > 10 µM | > 10 µM |  | 
57 | CN(Cc1ccccc1)c1ncnc2c1sc1nc3c(cc12)COC(C)(C)C3 [Compound 292] | > 10 µM | > 10 µM |  | 
58 | CC1(C)CCc2cc3c(nc2C1)sc1c(CCC2(c4ccccc4)CCCC2)cccc13 [Compound 293] | > 10 µM | > 10 µM |  | 
